Measured values as given in the supplement of paper PMC10307832.

What was measured:
Assay in all cases: relative viability (nuclei count vs DMSO), 5 days (fraction); higher = more cells survive
OSI-027 + Pemetrexed = compound: COc1cccc2cc(-c3nc([C@H]4CC[C@H](C(=O)O)CC4)n4ncnc(N)c34)[nH]c12 [OSI-027] + Nc1nc2[nH]cc(CCc3ccc(C(=O)N[C@@H](CCC(=O)O)C(=O)O)cc3)c2c(=O)[nH]1 [Pemetrexed] (partner 0.2 µM)
Summary of the method: (§1)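 Lung cancer cell lines in 1536-well plates got either a single drug or a fixed anchor-drug dose together with five library-drug doses (not always all listed) in √10 steps, by pin tool, on the day after seeding. Nuclei were counted after 5 days, and relative viability is the treated-to-vehicle ratio of nuclei counts. Values are medians of duplicate plates.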

Alpelisib + Foretinib = compound: Cc1nc(NC(=O)N2CCC[C@H]2C(N)=O)sc1-c1ccnc(C(C)(C)C(F)(F)F)c1 [Alpelisib] + COc1cc2c(Oc3ccc(NC(=O)C4(C(=O)Nc5ccc(F)cc5)CC4)cc3F)ccnc2cc1OCCCN1CCOCC1 [Foretinib] (partner 0.25 µM)
Summary of the method: as §1

Vemurafenib + Olaparib = compound: CCCS(=O)(=O)Nc1ccc(F)c(C(=O)c2c[nH]c3ncc(-c4ccc(Cl)cc4)cc23)c1F [Vemurafenib] + O=C(c1cc(Cc2n[nH]c(=O)c3ccccc23)ccc1F)N1CCN(C(=O)C2CC2)CC1 [Olaparib] (partner 8 µM)
Summary of the method: as §1

Alpelisib + Navitoclax = compound: Cc1nc(NC(=O)N2CCC[C@H]2C(N)=O)sc1-c1ccnc(C(C)(C)C(F)(F)F)c1 [Alpelisib] + CC1(C)CCC(c2ccc(Cl)cc2)=C(CN2CCN(c3ccc(C(=O)NS(=O)(=O)c4ccc(N[C@H](CCN5CCOCC5)CSc5ccccc5)c(S(=O)(=O)C(F)(F)F)c4)cc3)CC2)C1 [Navitoclax] (partner 0.5 µM)
Summary of the method: as §1

| Cell Line | relative viability (OSI-027 + Pemetrexed; first compound 0.01 µM) | relative viability (OSI-027 + Pemetrexed; first compound 0.03162 µM) | relative viability (OSI-027 + Pemetrexed; first compound 0.1 µM) | relative viability (OSI-027 + Pemetrexed; first compound 0.3162 µM) | relative viability (OSI-027 + Pemetrexed; first compound 1 µM) | relative viability (Alpelisib + Foretinib; first compound 0.04 µM) | relative viability (Alpelisib + Foretinib; first compound 0.1265 µM) | relative viability (Alpelisib + Foretinib; first compound 0.4 µM) | relative viability (Alpelisib + Foretinib; first compound 1.265 µM) | relative viability (Alpelisib + Foretinib; first compound 4 µM) | relative viability (Vemurafenib + Olaparib; first compound 0.03162 µM) | relative viability (Vemurafenib + Olaparib; first compound 0.3162 µM) | relative viability (Vemurafenib + Olaparib; first compound 1 µM) | relative viability (Alpelisib + Navitoclax; first compound 0.04 µM) | relative viability (Alpelisib + Navitoclax; first compound 0.1265 µM) | relative viability (Alpelisib + Navitoclax; first compound 0.4 µM) | relative viability (Alpelisib + Navitoclax; first compound 1.265 µM) | relative viability (Alpelisib + Navitoclax; first compound 4 µM) | relative viability (Vemurafenib + Olaparib; first compound 0.1 µM) |
| --- | --- | --- | --- | --- | --- | --- | --- | --- | --- | --- | --- | --- | --- | --- | --- | --- | --- | --- | --- |
| NCI-H322M | 0.602 | 0.608 | 0.633 | 0.556 | 0.519 | 0.909 | 0.867 | 0.927 | 0.619 | 0.678 | 0.728 | 0.93 | 0.726 | 0.908 | 1.07 | 1.29 | 0.941 | 0.936 |  |
| NCI-H441 | 0.259 | 0.213 | 0.285 | 0.255 | 0.251 | 0.891 | 0.844 | 0.786 | 0.724 | 0.566 | 0.512 | 0.556 | 0.536 | 0.571 | 0.434 | 0.8 | 0.43 | 0.552 | 0.597 |
| NCI-H460 | 0.0613 | 0.0659 | 0.0561 | 0.0523 | 0.0728 | 0.998 | 1.02 | 1.08 | 0.929 | 0.795 | 0.44 |  | 0.39 | 1.06 | 1.25 | 1.08 | 0.701 | 0.299 | 0.408 |
| NCI-H520 | 0.785 | 0.645 | 0.596 | 0.487 | 0.263 | 0.682 | 0.928 | 0.838 | 0.605 | 0.582 | 0.284 | 0.364 | 0.359 | 1.02 | 0.905 | 1.07 | 1.03 | 0.822 | 0.337 |
| NCI-H596 | 0.436 | 0.576 | 0.463 | 0.475 | 0.504 | 0.769 | 0.677 | 0.731 | 0.457 | 0.431 | 0.742 | 0.63 | 0.719 | 0.928 | 0.919 | 0.815 | 0.52 | 0.418 | 0.657 |
| NCI-H647 | 0.159 | 0.173 | 0.187 | 0.157 | 0.211 | 1.12 | 1.14 | 1.33 | 0.837 | 1.24 | 0.605 | 0.513 | 0.634 | 1.04 | 1.03 | 1.22 | 0.83 | 0.948 | 0.469 |
| NCI-H838 | 0.245 | 0.255 | 0.249 | 0.234 | 0.214 | 0.94 | 0.961 | 1.01 | 0.892 | 0.871 | 0.746 | 0.697 | 0.821 | 1.02 | 1.08 | 1.15 | 1.04 | 1.01 | 0.764 |
| NCI-H1355 | 1.07 | 1.06 | 1 | 0.777 | 0.572 | 0.951 | 0.926 | 1.04 | 0.851 | 0.77 | 0.722 | 0.828 | 0.74 | 0.89 | 1.02 | 1.07 | 0.927 | 0.84 | 0.671 |
